The target of one assay is T1, Human 5-lipoxygenase (Homo sapiens, UniProt P09917).
T1 construct: purchased Cayman 60402; host or cells: insect cells
T1 sequence (P09917 1-674): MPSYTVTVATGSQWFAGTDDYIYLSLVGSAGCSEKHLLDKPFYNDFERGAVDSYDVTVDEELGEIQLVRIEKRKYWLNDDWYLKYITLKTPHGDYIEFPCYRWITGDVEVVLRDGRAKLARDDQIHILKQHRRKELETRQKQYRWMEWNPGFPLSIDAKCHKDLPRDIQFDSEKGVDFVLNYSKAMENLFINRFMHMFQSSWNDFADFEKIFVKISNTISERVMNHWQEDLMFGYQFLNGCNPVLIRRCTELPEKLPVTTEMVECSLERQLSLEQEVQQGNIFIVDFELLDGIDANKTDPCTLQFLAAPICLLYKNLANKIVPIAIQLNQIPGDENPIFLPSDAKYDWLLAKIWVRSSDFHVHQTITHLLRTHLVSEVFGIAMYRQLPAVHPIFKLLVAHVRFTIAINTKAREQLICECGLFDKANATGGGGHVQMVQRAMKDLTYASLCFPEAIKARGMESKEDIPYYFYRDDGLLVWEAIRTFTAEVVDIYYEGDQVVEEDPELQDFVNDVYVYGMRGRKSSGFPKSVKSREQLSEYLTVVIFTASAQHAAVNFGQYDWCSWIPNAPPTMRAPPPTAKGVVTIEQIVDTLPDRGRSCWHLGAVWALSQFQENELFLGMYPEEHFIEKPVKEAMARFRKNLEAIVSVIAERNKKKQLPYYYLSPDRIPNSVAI
Briefly: Activity of compounds against 5-LO enzyme (LTB4 measurement and/or fluorescence method). The format is biochemical. The following applies: 5-LO, single concentration of 10 uM in duplicate. The procedure, abridged:
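Insect-cell human 5-LO preincubated 15 min at RT with compound (pH 7.4, 2 mM CaCl2, 0.1 mM ATP, 1% DMSO), then 3 uM arachidonic acid for 5 min at 37 °C; LTB4 quantified by EIA and/or LC/MS/MS. Alternatively, fluorescence of 5-HpETE via H2DCFDA, 100 uM ATP, 3 uM arachidonic acid, 5 min, RT; single 10 uM screen then 6- or 11-point IC50.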
`CCc1nc2cc(Cl)ccn2c1C(=O)NCc1ccc(-c2ccc(OC)cn2)cc1` [compound 119, 7-Chloro-2-ethyl-N-(4-(5-methoxypyridin-2-yl)benzyl)imidazo[1,2-a]pyridine-3-carboxamide]: the inhibition at 10 µM fell in the range of 40 to 69%. Same read-out and setting: as for `CCc1nc2ccc(Cl)cn2c1C(=O)NCc1ccc(/C=C/c2ccc(F)cc2)cc1` [compound 329, (E)-6-chloro-2-ethyl-N-(4-(4-fluorostyryl)benzyl)imidazo[1,2-a]pyridine-3-carboxamide], the figure is under 40%. `CCc1nc2ccc(Cl)cn2c1CNCCc1ccccn1` [compound 342, N-((6-chloro-2-ethylimidazo[1,2-a]pyridin-3-yl)methyl)-2-(pyridin-2-yl)ethanamine] returned an inhibition at 10 µM of under 40%. For `CCc1nc2ccc(Cl)cn2c1C(=O)NCc1ccc2ccccc2c1` [compound 79, 6-Chloro-2-ethyl-N-(naphthalen-2-ylmethyl)imidazo[1,2-a]pyridine-3-carboxamide], the inhibition at 10 µM was under 40%. Consider `CCc1nc2cc(Cl)ccn2c1C(=O)NCc1ccc(-c2ccc(OC(F)(F)F)cc2)cc1` [compound 112, 7-Chloro-2-ethyl-N-((4′-(trifluoromethoxy)biphenyl-4-yl)methyl)imidazo[1,2-a]pyridine-3-carboxamide], for which the inhibition at 10 µM is 40 to 69%. Take `COc1ccc(CCNC(=O)c2c(C)nc3ccccn23)cc1` [compound 8, N-(4-Methoxyphenethyl)-2-methylimidazo[1,2-a]pyridine-3-carboxamide]: the inhibition at 10 µM was under 40%.

As for `CCc1nc2ccc(Cl)cn2c1C(=O)NCc1ccc2ccn(C)c2c1` [compound 68], the inhibition at 10 µM was under 40%. `CCc1nc2cc(Cl)ccn2c1C(=O)NCc1ccn(-c2ccc(OC(F)(F)F)cc2)n1` [compound 133, 7-Chloro-2-ethyl-N-((1-(4-(trifluoromethoxy)phenyl)-1H-pyrazol-3-yl)methyl)imidazo[1,2-a]pyridine-3-carboxamide] gave an inhibition at 10 µM of 40 to 69%. Turning to `Cc1nc2c(C(F)(F)F)cccn2c1C(=O)NCc1ccccc1` [compound 36, N-Benzyl-2-methyl-8-(trifluoromethyl)imidazo[1,2-a]pyridine-3-carboxamide], the inhibition at 10 µM is under 40%.

`CCc1nc2ccccn2c1C(=O)NCc1ccc2c(ccn2C)c1` [compound 50, 2-Ethyl-N-((1-methyl-1H-indol-5-yl)methyl)imidazo[1,2-a]pyridine-3-carboxamide] displayed an inhibition at 10 µM of under 40%. The same measure, in the same setting: the figure for `CCc1nc2ccc(Cl)cn2c1C(=O)NCc1ccc(N2CCN(Cc3ccc(F)cc3)CC2)cc1` [compound 130, 6-Chloro-2-ethyl-N-(4-(4-(4-fluorobenzyl)piperazin-1-yl)benzyl)imidazo[1,2-a]pyridine-3-carboxamide] is over 69%.

Turning to `CCc1nc2cc(Cl)ccn2c1C(=O)NCc1ccc(-c2ccc(C=O)cc2)cc1` [compound 287, 7-Chloro-2-ethyl-N-((4′-formylbiphenyl-4-yl)methyl)imidazo[1,2-a]pyridine-3-carboxamide], the inhibition at 10 µM was in the range of 40 to 69%. `CCc1nc2cc(Cl)ccn2c1CNc1ccc(N2CCC(c3ccc(OC(F)(F)F)cc3)CC2)cc1` [compound 376, N-((7-chloro-2-ethylimidazo[1,2-a]pyridin-3-yl)methyl)-4-(4-(4-(trifluoromethoxy)phenyl)piperidin-1-yl)aniline]: the inhibition at 10 µM is over 69%.

Turning to `CCc1nc2ccc(Cl)cn2c1C(=O)N1CCC(OCc2ccc(C)cc2)CC1` [compound 331, (6-chloro-2-ethylimidazo[1,2-a]pyridin-3-yl)(4-((4-methylbenzyl)oxy)piperidin-1-yl)methanone], the inhibition at 10 µM was under 40%. Consider `Cc1nc2c(C#N)cccn2c1C(=O)NCc1ccccc1` [compound 47, N-Benzyl-8-cyano-2-methylimidazo[1,2-a]pyridine-3-carboxamide], for which the inhibition at 10 µM was under 40%. The compound `CCc1nc2cc(Cl)ccn2c1C(=O)NCc1ccc(-c2ccc(C)cc2)cc1` [compound 87, 7-Chloro-2-ethyl-N-((4′-methylbiphenyl-4-yl)methyl)imidazo[1,2-a]pyridine-3-carboxamide] gave an inhibition at 10 µM of 40 to 69%.

`CCc1nc2ccc(Cl)cn2c1C(=O)N1CCC(OCc2ccc(F)cc2)CC1` [compound 333, (6-chloro-2-ethylimidazo[1,2-a]pyridin-3-yl)(4-((4-fluorobenzyl)oxy)piperidin-1-yl)methanone] registered an inhibition at 10 µM of under 40%.

`CCc1nc2cc(OC)ccn2c1C(=O)NCc1ccc(N2CCOCC2)cc1` [compound 261, 2-Ethyl-7-methoxy-N-(4-morpholinobenzyl)imidazo[1,2-a]pyridine-3-carboxamide]: the inhibition at 10 µM is under 40%.

Take `CCc1nc2ccccn2c1C(=O)NCc1ccc(Oc2ccccc2)cc1` [compound 45, 2-Ethyl-N-(4-phenoxybenzyl)imidazo[1,2-a]pyridine-3-carboxamide]: the inhibition at 10 µM is under 40%. Still for that read-out and setting: as for `CCc1nc2cc(Cl)c(Cl)cn2c1C(=O)NCc1ccc(OC(F)(F)F)cc1` [compound 178, 6,7-Dichloro-2-ethyl-N-(4-(trifluoromethoxy)benzyl)imidazo[1,2-a]pyridine-3-carboxamide], the figure is under 40%; as for `CCc1nc2cc(Cl)ccn2c1C(=O)NCc1ccc(-c2cccc(C)c2)cc1` [compound 86, 7-Chloro-2-ethyl-N-((3′-methylbiphenyl-4-yl)methyl)imidazo[1,2-a]pyridine-3-carboxamide], over 69%. In turn, `Cc1nc2ccccn2c1C(=O)NCc1ccccc1` [compound 3, N-Benzyl-2-methylimidazo[1,2-a]pyridine-3-carboxamide] yielded an inhibition at 10 µM of under 40%. Compound `CCc1nc2cc([N+](=O)[O-])ccn2c1C(=O)NCc1ccc(OC(F)(F)F)cc1` [compound 150, 2-Ethyl-7-nitro-N-(4-(trifluoromethoxy)benzyl)imidazo[1,2-a]pyridine-3-carboxamide] returned an inhibition at 10 µM of 40 to 69%.

With `CCc1nc2cc(Cl)ccn2c1C(=O)NCc1ccc(N2CC=CCC2)cc1` [compound 194, 7-Chloro-N-(4-(5,6-dihydropyridin-1(2H)-yl)benzyl)-2-ethylimidazo[1,2-a]pyridine-3-carboxamide], the inhibition at 10 µM was over 69%. As for `CCc1nc2ccc(Cl)cn2c1C(=O)NCc1ccc(N2CCCCCC2)cc1` [compound 192, N-(4-(Azepan-1-yl)benzyl)-6-chloro-2-ethylimidazo[1,2-a]pyridine-3-carboxamide], the inhibition at 10 µM lay within 40 to 69%. On the same count and under the same terms, as for `Cc1nc2ccc(Cl)cn2c1C(=O)NCc1ccccc1` [compound 17, N-Benzyl-6-chloro-2-methylimidazo[1,2-a]pyridine-3-carboxamide], the figure is under 40%; as for `CCc1nc2ccc(Cl)cn2c1C(=O)NCc1ccc(-c2ccccc2Cl)cc1` [compound 72, 6-Chloro-N-((2′-chlorobiphenyl-4-yl)methyl)-2-ethylimidazo[1,2-a]pyridine-3-carboxamide], 40 to 69%; as for `CCc1nc2ccc(Cl)cn2c1C(=O)NCc1ccc(N2CCN(c3ccc(F)cc3)CC2)cc1` [compound 148, 6-Chloro-2-ethyl-N-(4-(4-(4-fluorophenyl)piperazin-1-yl)benzyl)imidazo[1,2-a]pyridine-3-carboxamide], 40 to 69%.

The assay is the same for the next values; noted with them: 6 or 11 point dose response in duplicate.
`CCc1nc2ccc(Cl)cn2c1C(=O)NCc1ccc(N2CCN(Cc3ccc(F)cc3)CC2)cc1` [compound 130, 6-Chloro-2-ethyl-N-(4-(4-(4-fluorobenzyl)piperazin-1-yl)benzyl)imidazo[1,2-a]pyridine-3-carboxamide] displayed an IC50 of 1 to 20 µM. On the same count and under the same terms, the figure for `CCc1nc2ccc(Cl)cn2c1C(=O)N1CCCC(OCc2ccc(OC(F)(F)F)cc2)C1` (stereo not shown) [compound 382, (6-chloro-2-ethylimidazo[1,2-a]pyridin-3-yl)(3-(4-(trifluoromethoxy)benzyloxy)-piperidin-1-yl)methanone] is 1 to 20 µM; for `CCc1nc2ncccn2c1C(=O)N1CCC(OCc2ccc(OC(F)(F)F)cc2)CC1` [compound 385, (2-Ethylimidazo[1,2-a]pyrimidin-3-yl)(4-((4-(trifluoromethoxy)benzyl)oxy)piperidin-1-yl)methanone] it is over 20 µM. For `CCc1nc2cc(Cl)ccn2c1C(=O)NCc1ccc(-c2cccc(C)c2)cc1` [compound 86, 7-Chloro-2-ethyl-N-((3′-methylbiphenyl-4-yl)methyl)imidazo[1,2-a]pyridine-3-carboxamide], the IC50 lay in the range of 1 to 20 µM.

Consider `CCc1nc2ccc(Cl)cn2c1C(=O)N1CC[C@@H](OCc2ccc(OC(F)(F)F)cc2)C1` [compound 391, (R)-(6-chloro-2-ethylimidazo[1,2-a]pyridin-3-yl)(3-(4-(trifluoromethoxy)benzyloxy)-pyrrolidin-1-yl)methanone], for which the IC50 is 1 to 20 µM. On to `CCc1nc2cc(Cl)ccn2c1C(=O)NCc1ccc(N2CC=CCC2)cc1` [compound 194, 7-Chloro-N-(4-(5,6-dihydropyridin-1(2H)-yl)benzyl)-2-ethylimidazo[1,2-a]pyridine-3-carboxamide], for which the IC50 is over 20 µM. `CCc1nc2cnccn2c1C(=O)N1CCC(OCc2ccc(OC(F)(F)F)cc2)CC1` [compound 389, (2-Ethylimidazo[1,2-a]pyrazin-3-yl)(4-((4-(trifluoromethoxy)benzyl)oxy)piperidin-1-yl)methanone] showed an IC50 of over 20 µM. `CCc1nc2ccc(Cl)cn2c1CNCc1ccc(N2CCN(c3ccc(F)cc3)CC2)cc1` [compound 381, 1-(6-chloro-2-ethylimidazo[1,2-a]pyridin-3-yl)-N-(4-(4-(4-fluorophenyl)piperazin-1-yl)benzyl)methanamine]: the IC50 is 1 to 20 µM. The compound `CCc1nc2ccc(Cl)cn2c1C(=O)NCc1ccc(N2CCN(c3ccc(F)cc3)CC2)cc1` [compound 148, 6-Chloro-2-ethyl-N-(4-(4-(4-fluorophenyl)piperazin-1-yl)benzyl)imidazo[1,2-a]pyridine-3-carboxamide] came in with an IC50 of 1 to 20 µM.

In general, inhibition refers to how much of the control response was suppressed. The low end stands for little suppression, the high end for strong suppression. By IC50 is commonly meant the concentration that gives 50% inhibition. A lower IC50 goes with greater potency in that assay.

The values above are taken from patent publication US9029389B2 (Institut Pasteur Korea, priority 2011, dated 2015).
